Experiments:
soybean = assay: Test C preemergence; format: in vivo, Glycine max
Procedure, shortened: (§1)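 Scores of 0 (no effect) to 100 (complete control) were assigned by eye after 13–15 days, comparing treated pots with controls. Soil-applied (preemergence) treatments went onto seeds in loam and sand; foliar (postemergence) treatments onto 1- to 4-leaf plants in peat medium.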

wheat = assay: Test C postemergence; format: in vivo, Triticum aestivum
Description: (§2) Seeds of plant species selected from blackgrass (Alopecurus myosuroides), ryegrass, Italian (Italian ryegrass, Lolium multiflorum), wheat (winter wheat, Triticum aestivum), galium (catchweed bedstraw, Galium aparine), corn (Zea mays), crabgrass, large (large crabgrass, Digitaria sanguinalis), foxtail, giant (giant foxtail, Setaria faberii), johnsongrass (Sorghum halepense), lambsquarters (Chenopodium album), morningglory (Ipomoea coccinea), nutsedge, yellow (yellow nutsedge, Cyperus esculentus), pigweed (redroot pigweed, Amaranthus retroflexus), ragweed (common ragweed, Ambrosia elation), soybean (Glycine max), barnyardgrass (Echinochloa crus-galli), oilseed rape (Brassica napus), waterhemp (common waterhemp, Amaranthus rudis), oat, wild (wild oat, Avena fatua), kochia (Kochia scoparia), Surinam grass (Brachiaria decumbens), foxtail, green (green foxtail, Setaria viridis), goosegrass (Eleusine indica), bromegrass, downy (downy bromegrass, Bromus tectorum), nightshade (eastern black nightshade, Solanum ptycanthum), cocklebur (common cocklebur, Xanthium strumarium), cupgrass, woolly (woolly cupgrass, Eriochloa villosa), bermudagrass (Cynodon dactylon), sunflower, (common oilseed sunflower, Helianthus annuus), Russian thistle (Salsola kali), and velvetleaf (Abutilon theophrasti) were planted into a blend of loam soil and sand and treated preemergence with test chemicals formulated in a non-phytotoxic solvent mixture which included a surfactant.
(§3) At the same time, plants selected from these crop and weed species and also chickweed (common chickweed, Stellaria media), canarygrass (littleseed canarygrass, Phalaris minor), and deadnettle (henbit deadnettle, Lamium amplexicaule), were planted in pots containing Redi-Earth® planting medium (Scotts Company, 14111 Scottslawn Road, Marysville, Ohio 43041) comprising spaghnum peat moss, vermiculite, wetting agent and starter nutrients and treated with postemergence applications of test chemicals formulated in the same manner. Plants ranged in height from 2 to 18 cm (1- to 4-leaf stage) for postemergence treatments. Treated plants and controls were maintained in a greenhouse for 13 to 15 days, after which time all species were compared to controls and visually evaluated. Plant response ratings, summarized in Table C, are based on a scale of 0 to 100 where 0 is no effect and 100 is complete control. A dash (-) response means no test result.

galium = assay: Test C preemergence; format: in vivo, Galium aparine
Procedure, shortened: as §1

lambsquarters = assay: Test C postemergence; format: in vivo, Chenopodium album
Procedure, shortened: as §1

waterhemp = assay: Test C preemergence; format: in vivo, Amaranthus rudis
Procedure, shortened: as §1

pigweed = assay: Test C preemergence; format: in vivo, Amaranthus retroflexus
Procedure, shortened: as §1

ragweed = assay: Test C preemergence; format: in vivo, Ambrosia elation
Procedure, shortened: as §1

velvetleaf = assay: Test A postemergence; format: in vivo, Abutilon theophrasti
Procedure, shortened: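 Both timings tested concurrently in loam/sand soil: preemergence by directed soil spray, postemergence on plants of 2–10 cm at the one- to two-leaf stage. Greenhouse holding period was approximately 10 days before visual injury assessment (0–100, 0 = no effect).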

foxtail, giant = assay: Test C postemergence; format: in vivo, Setaria faberii
Procedure, shortened: as §1

chickweed = assay: Test C postemergence; format: in vivo, Stellaria media
Description: as §2, §3

corn = assay: Test C preemergence; format: in vivo, Zea mays
Procedure, shortened: as §1

johnsongrass = assay: Test C postemergence; format: in vivo, Sorghum halepense
Procedure, shortened: as §1

[1] = preemergence, 31 g ai/ha, scale 0 to 100 (0 no effect, 100 complete control), 13 to 15 days
[2] = preemergence, 62 g ai/ha, 13 to 15 days, scale 0 to 100, 0 = no effect, 100 = complete control
[3] = preemergence, 125 g ai/ha, scale 0 to 100, 0 is no effect, 100 is complete control
[4] = Postemergence, 31 g ai/ha, visually evaluated after 13 to 15 days
[5] = postemergence, 62 g ai/ha, scale 0 to 100
[6] = postemergence, 250 g ai/ha, scale 0 to 100 (0 no effect, 100 complete control)
[7] = postemergence, 125 g ai/ha, scale 0 to 100, 0 no effect, 100 complete control

Compound: CCc1cc(C(=O)NC2CC2)nn1Cc1ccnc(C(F)(F)F)c1 [Compound 76]
- Plant response rating (scale of 0 to 100), Soybean (soybean; Preemergence, 250 g ai/ha): 100
- Soybean plant response rating (soybean; [1]): 80
- Plant response rating, Soybean (soybean; [2]): 98
- Soybean plant response rating (soybean; [3]): 98
- Plant response rating (scale of 0 to 100 where 0 is no effect and 100 is complete control), Wheat (wheat; [4]): 0
- Wheat plant response rating (wheat; [5]): 5
- Plant response rating, Wheat (wheat; [6]): 5
- Plant response rating, Wheat (wheat; [7]): 5
- Plant response rating (scale of 0 to 100), Galium (galium; Preemergence, 250 g ai/ha): 100
- Galium plant response rating (galium; [1]): 98
- Plant response rating, Galium (galium; [2]): 100
- Galium plant response rating (galium; [3]): 100
- Plant response rating (scale of 0 to 100 where 0 is no effect and 100 is complete control), Lambsquarters (lambsquarters; [4]): 75
- Lambsquarters plant response rating (lambsquarters; [5]): 75
- Plant response rating, Lambsquarters (lambsquarters; [6]): 85
- Plant response rating, Lambsquarters (lambsquarters; [7]): 85
- Plant response rating (scale of 0 to 100), Waterhemp (waterhemp; Preemergence, 250 g ai/ha): 100
- Waterhemp plant response rating (waterhemp; [1]): 98
- Plant response rating, Waterhemp (waterhemp; [2]): 100
- Waterhemp plant response rating (waterhemp; [3]): 100
- Plant response rating (scale of 0 to 100), Pigweed (pigweed; Preemergence, 250 g ai/ha): 100
- Pigweed plant response rating (pigweed; [1]): 100
- Plant response rating, Pigweed (pigweed; [2]): 100
- Pigweed plant response rating (pigweed; [3]): 100
- Plant response rating (scale of 0 to 100), Ragweed (ragweed; Preemergence, 250 g ai/ha): 100
- Ragweed plant response rating (ragweed; [1]): 90
- Plant response rating, Ragweed (ragweed; [2]): 100
- Ragweed plant response rating (ragweed; [3]): 100
- Velvetleaf plant response rating (velvetleaf; Postemergence, 500 g ai/ha, visual rating after approx. 10 days, 0 to 100 scale (0 no effect, 100 complete control)): 90
- Velvetleaf plant response rating (velvetleaf; postemergence, 125 g ai/ha, about 10 days, visual rating on 0 to 100 scale (0 no effect, 100 complete control)): 30
- Plant response rating (scale of 0 to 100 where 0 is no effect and 100 is complete control), Foxtail, Giant (foxtail, giant; [4]): 20
- Foxtail, Giant plant response rating (foxtail, giant; [5]): 20
- Plant response rating, Foxtail, Giant (foxtail, giant; [6]): 85
- Plant response rating, Foxtail, Giant (foxtail, giant; [7]): 65
- Plant response rating (scale of 0 to 100 where 0 is no effect and 100 is complete control), Chickweed (chickweed; [4]): 50
- Chickweed plant response rating (chickweed; [5]): 80
- Plant response rating, Chickweed (chickweed; [6]): 85
- Plant response rating, Chickweed (chickweed; [7]): 80
- Plant response rating (scale of 0 to 100), Corn (corn; Preemergence, 250 g ai/ha): 100
- Corn plant response rating (corn; [1]): 40
- Plant response rating, Corn (corn; [2]): 80
- Corn plant response rating (corn; [3]): 100
- Plant response rating (scale of 0 to 100 where 0 is no effect and 100 is complete control), Johnsongrass (johnsongrass; [4]): 0
- Johnsongrass plant response rating (johnsongrass; [5]): 0
- Plant response rating, Johnsongrass (johnsongrass; [6]): 25
- Plant response rating, Johnsongrass (johnsongrass; [7]): 25

From patent publication US20150105252A1, “SUBSTITUTED PYRAZOLES AS HERBICIDES” (E I DU PONT DE NEMOURS AND COMPANY, priority 2013, published 2015)
